Results as given in patent US4749568A, “Rubradirin treatment of methicillin-resistant staph” (The Upjohn Company, priority 1987, dated 1988).

Columns and labels:
[1] = tested on: Staphylococcus aureus; experiment: Treatment of patient with bacterial pneumonia (Example 1); assay type: in vivo, Staphylococcus aureus (human patient); details: 70 kg male, 1000 mg three times daily by mouth
Method: (§1) A 70 kg person has a fever of 103° F. and has symptoms of bacterial pneumonia infection. Standard laboratory tests isolate an organism which is identified as Staphylococcus aureus. […] The patient is given 1000 mg of rubradirin three times daily by mouth. The temperature over a short period goes to 98.6° F. and the clinical symptoms of pneumonia disappear.

[2] = tested on: S. aureus UC9213; experiment: ED50 determination, mice infected intraperitoneally with S. aureus UC9213; assay type: in vivo, Staphylococcus aureus (infected mice, Charles Fisher #1); details: dosed 1 and 5 hr post infection, 10080 min
Method: (§2) Effective Dose50 (ED50) determinations were performed using standard methods. All mice (Charles Fisher #1, 20 g) were given sufficient S. aureus intraperitoneally (IP) to kill 90 to 100% of untreated mice. At least five dosage levels of antibiotics were employed per each ED50 determination. The antibiotic was administered subcutaneous (SQ) or orally at 1 and 5 hr post infection. The mice were monitored for one week with deaths being noted daily. The ED50 values were calculated by probit analysis.
(§3) ^1 The dose of drug in mg/kg of body weight required to protect 50% o
(§4) the infected animals. Drug was dosed one and five hours post infection
(§5) ^2 Paldimycin was dosed SQ.

[3] = tested on: Staphylococcus aureus; experiment: Susceptibility test of patient isolate; assay type: cell-based; details: isolate from patient, Examples 1 to 3
Method: It is known to those skilled in the art how to determine which Staphylococcus (aureus or epidermidis) infections are rubradirin-sensitiveand methicillin-resistant by use of standarad susceptibility tests. See, "Dilution Susceptibility Test: agar and macro-broth dilution procedures; Manual of Clinical Microbiology, Third Edition, American Society of Microbiology, 1980, Washington, D.C., p 453-458".
as §1
(§6) A 60 kg patient has an infection on their arm following a severe burn. They have a 101° F. fever. Standard laboratory tests isolate an organism which is identified as Staphylococcus aureus. […] The patient is treated with a cream containing 3% rubradirin.
A 85 kg person has baceterial endocarditis with a fever of 104° F. Standard laboratory tests isolate an organism which is identified as Staphylococcus aureus. […] The patient is treated with an IV infusion of rubradirin (4.5 mg/ml) at a rate of 60 ml/hr for a dose of 76 mg/kg/day.

[4] = tested on: two clinical strains of S. aureus; details: cited from earlier work
[5] = tested on: S. aureus UC6685; experiment: ED50 determination, mice infected intraperitoneally with S. aureus UC6685; assay type: in vivo, Staphylococcus aureus (infected mice, Charles Fisher #1); details: dosed 1 and 5 hr post infection, 10080 min
Method: as §2, §3, §4, §5

[6] = tested on: S. aureus UC9271; experiment: ED50 determination, mice infected intraperitoneally with S. aureus UC9271; assay type: in vivo, Staphylococcus aureus (infected mice, Charles Fisher #1); details: dosed 1 and 5 hr post infection, 10080 min
Method: as §2, §3, §4, §5

[7] = tested on: Staphylococcus aureus; experiment: Topical treatment of patient with infected burn (Example 2); assay type: in vivo, Staphylococcus aureus (human patient); details: 60 kg female, cream containing 3% rubradirin
Method: as §6

[8] = tested on: Multidrug-resistant staphylococci; details: Orthopedic Clinics of North America 15, 417 (1984); cited from earlier work

Molecule: COc1ccc2c(O)c(NC(=O)c3cc(O[C@@H]4C[C@](C)([N+](=O)[O-])[C@@H](OC)[C@@H](C)O4)c(O)c(C(=O)O[C@H]4[C@H](O)C(=O)[C@]5(C)CNC6=C(O5)C(=O)c5c(cc(C)c(O)c5C(=O)/C(C)=C\[C@@H]4C)C6=O)n3)c(=O)oc2c1 [Rubradirin, rubradirin]
- clinical symptoms of pneumonia [1]: disappear
- temperature ([1]; fever of 103° F. before): 98.6 ° F.
- ED50 ([2]; SQ): 4.7 mg/kg
- ED50 ([2]; oral): 1.6 mg/kg
- Susceptibility test results of the isolate [3]: susceptible
- in vitro activity ([4]; two clinical strains resistant to several antibiotics): had in vitro activity
- ED50 ([5]; SQ): 4.7 mg/kg
- ED50 ([5]; oral): 11.1 mg/kg
- ED50 ([6]; SQ): 23.1 mg/kg
- ED50 ([6]; oral): 141 mg/kg
- inflammation [7]: less inflammation
- wound infection and healing [7]: the wound is not infected and appears to be healing much better
- temperature ([7]; after 3 days, 101° F. fever before): goes to normal

Molecule: COc1cccc(OC)c1C(=O)N[C@@H]1C(=O)N2[C@@H]1SC(C)(C)[C@@H]2C(=O)O [methicillin]
- Susceptibility test results of the isolate [3]: resistant
- methicillin sensitivity of the strains ([4]; strains originally tested by Bhuyan et al, later study): sensitive

Molecule: CN[C@H](CC(C)C)C(=O)N[C@H]1C(=O)N[C@@H](CC(N)=O)C(=O)N[C@H]2C(=O)N[C@H]3C(=O)N[C@H](C(=O)N[C@H](C(=O)O)c4cc(O)cc(O)c4-c4cc3ccc4O)[C@H](O)c3ccc(c(Cl)c3)Oc3cc2cc(c3O[C@@H]2O[C@H](CO)[C@@H](O)[C@H](O)[C@H]2O[C@H]2C[C@](C)(N)[C@H](O)[C@H](C)O2)Oc2ccc(cc2Cl)[C@H]1O [vancomycin]
- susceptibility [8]: retained their susceptibility

Molecule: Paldimycin
- ED50 ([2]; SQ): 12.7 mg/kg
- ED50 ([5]; SQ): 8.1 mg/kg
- ED50 ([6]; SQ): 20.5 mg/kg
